# Publication PMC4687129, “Molecular characterization of a cathepsin F-like protease in Trichinella spiralis” (Parasites & Vectors, 2015)
# Tested on: T1, TsCF1 (cathepsin F-like protease)
# T1 construct: gene Tsp_02382
# Experiment: fluorescence endpoint assay, Z-Phe-Arg-AMC hydrolysis at pH […] min preincubation with inhibitor
# Format: biochemical, Trichinella spiralis
compound,measurement,value
CC(C)C[C@H](NC(=O)[C@H]1O[C@@H]1C(=O)O)C(=O)NCCCCN=C(N)N [E-64],IC50,136 ± 16.9 nM
